This assay relates to Plasmodium berghei. Kind of assay: Luciferase/luciferin-expressing antifolate-resistant parasites were used to infect a culture of HepG2 cells that were pre-incubated with compounds. Infected hepatocytes emit light due to the luciferase reaction. Assay results are presented as the percent inhibition of light emission compared to control. […]. In kind it is functional. As to conditions: sporozoite; for IC90: read-out: LUCIFERASE INFECTION ASSAY - IC90.

One may read the IC50 as the concentration at which inhibition is half-maximal. Broadly, the IC90 is the concentration at which the effect reaches the 90% level. With `C=CCNc1nc(-c2ccccc2)c(C(=O)OCC)cc1C#N`, the IC90 was more than 10.7 µM. Also, the IC50 (HEPG2TOX_HILL_SLOPE 2.72, HEPG2TOX_R_SQUARED 0.984, PBLUC_HILL_SLOPE 4, PBLUC_R_SQUARED 0.181, read-out: LUCIFERASE INFECTION ASSAY - IC50) came to 6.9 µM.

On to `COc1cc(-c2cn3c(-c4ccc5ncccc5c4)cnc3cn2)cc(OC)c1OC`, for which the IC90 stood at 7.92 µM. The IC50 (HEPG2TOX_HILL_SLOPE 2.69, HEPG2TOX_R_SQUARED 0.906, PBLUC_HILL_SLOPE 2.74, PBLUC_R_SQUARED 0.535, read-out: LUCIFERASE INFECTION ASSAY - IC50) came out at 3.55 µM.

With `Cc1nc(-c2ccc(C(C)Nc3cnn(-c4ccccc4)c(=O)c3Cl)cc2)cs1` (stereo not given), the IC90 turned out to be 5.07 µM. The IC50 (HEPG2TOX_HILL_SLOPE 2.7, HEPG2TOX_R_SQUARED 0.839, PBLUC_HILL_SLOPE 8.17, PBLUC_R_SQUARED 0.802, read-out: LUCIFERASE INFECTION ASSAY - IC50) amounted to 3.88 µM.

On to `CCNC(=O)NC(=O)C(Sc1nncn1-c1ccccc1OC)c1ccccc1` (stereo not given), for which the IC90 stood at 9.43 µM. Besides, the IC50 (HEPG2TOX_HILL_SLOPE 2.69, HEPG2TOX_R_SQUARED 0.767, PBLUC_HILL_SLOPE 3.33, PBLUC_R_SQUARED 0.658, read-out: LUCIFERASE INFECTION ASSAY - IC50) came out at 4.87 µM.

As for `Cc1ccc2nc(NC(=O)c3cc(F)ccc3C)c(C(=O)NCC(C)C)n2c1`, the IC90 was determined as 3.84 µM. For the setting “HEPG2TOX_HILL_SLOPE 2.69, HEPG2TOX_R_SQUARED 0.883, PBLUC_HILL_SLOPE 9.75, PBLUC_R_SQUARED 0.136, read-out: LUCIFERASE INFECTION ASSAY - IC50”, the half-inhibitory concentration (IC50) turned out to be 3.07 µM.

Regarding `Brc1ccc(-c2ccc(CN3CCNCC3)s2)cc1`, the IC90 is more than 10 µM. Where the note is “HEPG2TOX_HILL_SLOPE 2.72, HEPG2TOX_R_SQUARED 0.0418, read-out: LUCIFERASE INFECTION ASSAY - IC50”, the IC50 was more than 10 µM.

For the molecule `CC(=O)Nc1ccc(S(=O)(=O)N2CCCc3cc(C)ccc32)cc1`, the IC90 is more than 10 µM. The IC50 (HEPG2TOX_HILL_SLOPE 2.72, HEPG2TOX_R_SQUARED 0.907, PBLUC_HILL_SLOPE 2.8, PBLUC_R_SQUARED 0.127, read-out: LUCIFERASE INFECTION ASSAY - IC50) was 5.79 µM.

Take `COc1ccc(C(C)C)cc1-c1cnc(N)c(-c2ccc(O)cc2)c1`: the IC90 is 3.69 µM. For the same molecule, the IC50 (HEPG2TOX_HILL_SLOPE 2.7, HEPG2TOX_R_SQUARED 0.932, PBLUC_HILL_SLOPE 18.7, PBLUC_R_SQUARED 0.395, read-out: LUCIFERASE INFECTION ASSAY - IC50) turned out to be 3.28 µM.

`O=C(NNC(=S)Nc1cccc(C(F)(F)F)c1)c1[nH]c2ccccc2c1-c1ccccc1`: the IC90 came to 2.73 µM. The IC50 (HEPG2TOX_HILL_SLOPE 2.69, HEPG2TOX_R_SQUARED 0.963, PBLUC_HILL_SLOPE 11.7, PBLUC_R_SQUARED 0.673, read-out: LUCIFERASE INFECTION ASSAY - IC50) worked out at 2.27 µM.

With `CC(=O)O[C@H]1CC[C@]2(C)C3CC[C@]4(C)C(C5=CC(=O)OC5)CC[C@]4(O)C3CC[C@@H]2C1` (stereo not given in full), the IC90 is 1.14 µM. Besides, the IC50 (HEPG2TOX_HILL_SLOPE 2.72, HEPG2TOX_R_SQUARED 0.979, PBLUC_HILL_SLOPE 2.85, PBLUC_R_SQUARED 0.935, read-out: LUCIFERASE INFECTION ASSAY - IC50) is 0.528 µM.

As for `Cc1nc(SCc2cccc(S(=O)(=O)N(C)C)c2)c2ccccc2n1`, the concentration for an effect of 90% (IC90) was more than 10 µM. Further, the IC50 (HEPG2TOX_HILL_SLOPE 2.7, HEPG2TOX_R_SQUARED 0.556, read-out: LUCIFERASE INFECTION ASSAY - IC50) is more than 10 µM.

As for `O=C(Nc1c2ccccc2nc2ccccc12)c1[nH]nc2c1CCCC2`, the IC90 was 4.07 µM. Besides, the IC50 (HEPG2TOX_HILL_SLOPE 2.71, HEPG2TOX_R_SQUARED 0.934, PBLUC_HILL_SLOPE 11.2, PBLUC_R_SQUARED 0.297, read-out: LUCIFERASE INFECTION ASSAY - IC50) came to 3.34 µM.

For the molecule `C[C@H]1O[C@@H](O[C@H]2[C@@H](O)C[C@H](O[C@H]3[C@@H](O)C[C@H](O[C@H]4CC[C@]5(C)C6CC[C@]7(C)[C@@H](C8=CC(=O)OC8)CC[C@]7(O)C6CC[C@@H]5C4)O[C@@H]3C)O[C@@H]2C)C[C@H](O)[C@H]1O` (stereo not given in full), the IC90 was found to be 3.31 µM. For the same molecule, under “HEPG2TOX_HILL_SLOPE 2.7, HEPG2TOX_R_SQUARED 0.866, PBLUC_HILL_SLOPE 1.79, PBLUC_R_SQUARED 0.476, read-out: LUCIFERASE INFECTION ASSAY - IC50”, the IC50 came to 0.969 µM.

Consider `COc1cc2c(cc1OC)CN(CCNc1ncnc3sccc13)CC2`, for which the IC90 is more than 10 µM. Besides, the half-maximal inhibitory concentration (IC50) (HEPG2TOX_HILL_SLOPE 2.69, HEPG2TOX_R_SQUARED 0.552, PBLUC_HILL_SLOPE 1.83, PBLUC_R_SQUARED 0.419, read-out: LUCIFERASE INFECTION ASSAY - IC50) was determined as 3.93 µM.

Turning to `CCCN(CCC)c1ccc(/C=C2\C=c3c(O)cccc3=C2O)cc1`, the IC90 was determined as 3.37 µM. In addition, the IC50 (HEPG2TOX_HILL_SLOPE 2.7, HEPG2TOX_R_SQUARED 0.839, PBLUC_HILL_SLOPE 2.95, PBLUC_R_SQUARED 0.682, read-out: LUCIFERASE INFECTION ASSAY - IC50) was 1.6 µM.

Consider `COCc1[nH]n2c3cccc(=O)c-3nnc2c1-c1ccccc1`, for which the IC90 was determined as 8.25 µM. Further, the half-maximal inhibitory concentration (IC50) (HEPG2TOX_HILL_SLOPE 2.72, HEPG2TOX_R_SQUARED 0.697, PBLUC_HILL_SLOPE 5.05, PBLUC_R_SQUARED 0.588, read-out: LUCIFERASE INFECTION ASSAY - IC50) is 5.34 µM.

In the case of `Fc1cccc(Nc2cc3c(cn2)ncn3Cc2ccccc2)c1`, the IC90 was more than 10 µM. Besides, the IC50 (HEPG2TOX_HILL_SLOPE 2.72, HEPG2TOX_R_SQUARED 0.764, PBLUC_HILL_SLOPE 2.07, PBLUC_R_SQUARED 0.581, read-out: LUCIFERASE INFECTION ASSAY - IC50) was determined as 8.26 µM.

For `O=C1OC(c2ccccc2)Cc2cc(C(=O)N3CCC(C(=O)Nc4ccccc4)CC3)ccc21` (stereo not given), the IC90 was more than 10 µM. The IC50 (HEPG2TOX_HILL_SLOPE 2.71, HEPG2TOX_R_SQUARED 0.817, PBLUC_HILL_SLOPE 3.44, PBLUC_R_SQUARED 0.218, read-out: LUCIFERASE INFECTION ASSAY - IC50) turned out to be 6.51 µM.

With `CNc1nc2cnc(Nc3cccc(C(F)(F)F)c3)cc2n1Cc1ccco1`, the IC90 is more than 10 µM. The IC50 (HEPG2TOX_HILL_SLOPE 2.71, HEPG2TOX_R_SQUARED 0.929, read-out: LUCIFERASE INFECTION ASSAY - IC50) was more than 10 µM.

For `CCOC(=O)/C=C/c1ccc(NC(=O)C2CCCN2c2ncnc3ccccc23)cc1` (stereo not given), the IC90 is more than 10 µM. In addition, where the note is “HEPG2TOX_HILL_SLOPE 2.7, HEPG2TOX_R_SQUARED 0.523, PBLUC_HILL_SLOPE 3.32, PBLUC_R_SQUARED 0.679, read-out: LUCIFERASE INFECTION ASSAY - IC50”, the concentration for half-maximal inhibition (IC50) amounted to 6.13 µM.

Consider `Cc1ccccc1N1CCN(Cc2csc(-c3ccccc3Cl)n2)CC1`, for which the IC90 came to 3.67 µM. Also, where the note is “HEPG2TOX_HILL_SLOPE 2.7, HEPG2TOX_R_SQUARED 0.815, PBLUC_HILL_SLOPE 21.2, PBLUC_R_SQUARED 0.497, read-out: LUCIFERASE INFECTION ASSAY - IC50”, the IC50 turned out to be 3.3 µM.

For the molecule `COc1ccc(/C=C2\C(=O)/C(=C/c3ccc(OC)c(O)c3)c3ccccc32)cc1O`, the IC90 stood at 3.46 µM. Where the note is “HEPG2TOX_HILL_SLOPE 2.67, HEPG2TOX_R_SQUARED 0.974, PBLUC_HILL_SLOPE 3.5, PBLUC_R_SQUARED 0.766, read-out: LUCIFERASE INFECTION ASSAY - IC50”, the IC50 came to 1.85 µM.

On to `COc1ccccc1-c1ccnc2n[nH]c(-c3cc(OC)c(OC)c(OC)c3)c12`, for which the IC90 amounted to 3.93 µM. The IC50 (HEPG2TOX_HILL_SLOPE 2.69, HEPG2TOX_R_SQUARED 0.93, PBLUC_HILL_SLOPE 7.13, PBLUC_R_SQUARED 0.294, read-out: LUCIFERASE INFECTION ASSAY - IC50) came out at 2.89 µM.

As to `CC(C)c1ccc(C(Nc2ccc3nnnn3n2)c2cccs2)cc1` (stereo not given), the IC90 amounted to 5.57 µM. The IC50 (HEPG2TOX_HILL_SLOPE 2.7, HEPG2TOX_R_SQUARED 0.805, PBLUC_HILL_SLOPE 2.3, PBLUC_R_SQUARED 0.604, read-out: LUCIFERASE INFECTION ASSAY - IC50) was 2.14 µM.

As to `CC(C)(C)c1ccc(-c2cc3[nH]c(-c4ccccc4)cc(=O)n3n2)cc1`, the concentration for an effect of 90% (IC90) was determined as 3.76 µM. Moreover, under “HEPG2TOX_HILL_SLOPE 2.71, HEPG2TOX_R_SQUARED 0.618, PBLUC_HILL_SLOPE 3.36, PBLUC_R_SQUARED 0.487, read-out: LUCIFERASE INFECTION ASSAY - IC50”, the IC50 came to 1.95 µM.
